From patent US10508118B2, “Pyrimidopyrrole compounds, method for preparing the same, pharmaceutical compositions comprising the same and uses thereof” (Xiamen University, priority 2015, dated 2019)
Read-outs that look alike come from different tables or passages of the source.

Columns and labels:
Format in all cases: cell-based
NPM-ALK-BaF3 = target: T1, NPM-ALK-BaF3 (Homo sapiens, UniProt Q9UM73); experiment: Growth inhibition of NPM-ALK transformed BaF3 cells (MTS); settings: 48 hours
T1 construct: expressed in transfected cells; host or cells: Ba/F3 cells; the other entry of the earlier key: NPM1 (P06748, Nucleophosmin)
Protocol: (§1) The activity of compounds against ALK kinase was evaluated by inhibiting the growth of cellular ALK kinase EML4-ALK-BaF3, EML4-ALK (L1196M)-BaF3, NPM-ALK-BaF3, and wild type BaF3 (Proc. Natl. Acad. Sci. USA., 2006, 103, 3153-8.) The growth of cellular ALK kinase EML4-ALK-BaF3, EML4-ALK(L1196M)-BaF3, and NPM-ALK-BaF3 depends on their kinase activity. If compounds can inhibit the activity of ALK kinase or the activity of ALK signaling pathway, they can inhibit the growth of ALK transformed Ba/F3 cells. […] The broad-spectrum toxicity of compounds can be evaluated by determining the effect of the compounds on the growth of wild type BaF3 cells.
(§2) 1) Medium: DMEM (Dulbecco's modified eagle medium) or RPMI1640 (containing 10% fetal bovine serum, 100 μg/mL ampicillin, 100 μg/mL streptomycin).)
(§3) Reagents: MTS solution (2 mg/mL MTS (3-(4,5-dimethylthiazol-2-yl)-5-(3-carboxymethoxyphenyl)-2-(4-sulfophenyl)-2H-tetrazolium, inner salt); 100 μg/mL PES ([…])).
(§4) 3) Test of compound: Transformed Ba/F3 cells (EML4-ALK-BaF3, EML4-ALK(L1196M)-BaF3, NPM-ALK-BaF3) (2×10^4/well) were distributed into 96-well plates, with volume of cell sap of 90 μL, 10 μL of compounds in gradient concentration (the highest concentration 10 was μM, followed by 1/3 step by step dilution, a total of 8 concentrations were set, the system contained 0.1% DMSO (dimethyl sulfoxide)). The cell plates mixed with compounds were cultured in a cell incubator (37° C.; 5% CO2) for 48 hours, and the added 20 μL of MTS reaction solution, mixed and incubated in cell incubator (37° C.; 5% CO2) for 1-4 hours. The OD value at a wavelength of 490 nm was measured using eliasa (VARIOSKAN FLASH, Thermo). Three parallels were set up for each group, with a final concentration of 0.1% DMSO as negative control, and with medium without cells and compounds as blank control. The inhibition rate of cell growth was calculated by the following formula: Cell inhibition rate %=1−(OD experimental group−OD blank group)/(OD negative group−OD blank group)*100%
(§5) 4) Calculation of IC50 value: the semi inhibitory concentration of the compound acting on the cells was calculated using GradPad Prism 5 software according to the cell inhibitory rate measured.

EML4-ALK (L1196M)-BaF3 = target: T2, EML4-ALK (L1196M)-BaF3 (Homo sapiens, UniProt Q9UM73, L1196M); experiment: Growth inhibition of EML4-ALK (L1196M) transformed BaF3 cells (MTS); settings: 48 hours
T2 construct: expressed in transfected cells; host or cells: Ba/F3 cells; the other entry of the earlier key: EML4 (Q9HC35, Echinoderm microtubule-associated protein-like 4)
Protocol: (§6) If compounds can inhibit the activity of ALK kinase or the activity of ALK signaling pathway, they can inhibit the growth of ALK transformed Ba/F3 cells. […] The broad-spectrum toxicity of compounds can be evaluated by determining the effect of the compounds on the growth of wild type BaF3 cells.
as §2, §3
as §4, with “control.” for “control. The inhibition rate of cell growth was calculated by the following formula: Cell inhibition rate %=1−(OD experimental group−OD blank group)/(OD negative group−OD blank group)*100%”
as §5

wild type BaF3 = experiment: Growth inhibition of wild type BaF3 cells (broad-spectrum toxicity); settings: Mus musculus, BaF3, 48 h, MTS
Protocol: as §1, §2, §3, §4, §5

EML4-ALK-BaF3 = target: T3, EML4-ALK-BaF3 (Homo sapiens, UniProt Q9UM73); experiment: Growth inhibition of EML4-ALK transformed BaF3 cells (MTS); settings: EML4-ALK-BaF3 cells, 48 hours, MTS
T3 construct: expressed in transfected cells; host or cells: Ba/F3 cells; the other entry of the earlier key: EML4 (Q9HC35, Echinoderm microtubule-associated protein-like 4)
Protocol: as §6, §2, §3
as §4, with “control.” for “control. The inhibition rate of cell growth was calculated by the following formula: Cell inhibition rate %=1−(OD experimental group−OD blank group)/(OD negative group−OD blank group)*100%”
as §5

[1] = Table 12, read-out: L1196M (IC50 nM)
[2] = Table 11, read-out: EML4-ALK (L1196M) (IC50 nM)

Row | Compound | IC50 (NPM-ALK-BaF3; Table 12) [nM] | IC50 (EML4-ALK (L1196M)-BaF3; [1]) [nM] | IC50 (wild type BaF3; Table 12) [nM] | IC50 (EML4-ALK-BaF3; Table 12) [nM] | IC50 (NPM-ALK-BaF3; Table 11) [nM] | IC50 (EML4-ALK (L1196M)-BaF3; [2]) [nM] | IC50 (wild type BaF3; Table 11) [nM] | IC50 (EML4-ALK-BaF3; Table 11) [nM]
1 | COc1cc(N2CCN(C)CC2)ccc1Nc1nc(Nc2ccccc2SC)c2c(ccn2C)n1 [IIA-1] | 512 | ~2560 | 1550 | ~909 |  |  |  | 
2 | COc1cc(N2CCC(N3CCN(C)CC3)CC2)ccc1Nc1nc(NCc2ccccc2SC)c2[nH]ccc2n1 [IL-2] |  |  |  |  | ~7720 | 2000 | ~7840 | ~2570
3 | CN1CCN(c2ccc(Nc3nc(Nc4ccccc4S(C)(=O)=O)c4[nH]ccc4n3)cc2)CC1 [IC-5] |  |  |  |  | 5260 | ~3350 | 4590 | 4080
4 | CC(C)S(=O)(=O)c1ccccc1CNc1nc(Nc2ccc(N3CCC(O)CC3)cc2)nc2ccn(C)c12 [IIL-3] | 7440 | > 10000 | > 10000 | > 10000 |  |  |  | 
5 | COc1cc(N2CCN(C)CC2)ccc1Nc1nc(Nc2ccccc2S(C)(=O)=O)c2c(ccn2C)n1 [IIC-1] | 5120 | ~5890 | ~8670 | 3530 |  |  |  | 
6 | COC(=O)c1ccccc1Oc1nc(Nc2ccc(N3CCC(N4CCN(C)CC4)CC3)cc2OC)nc2ccn(C)c12 [IIN-2] | 2330 | 2220 | 5630 | ~2590 |  |  |  | 
7 | COC(=O)c1cccc(Nc2nc(Nc3ccc(N4CCN(C)CC4)cc3OC)nc3cc[nH]c23)c1 [II-1] |  |  |  |  | 1640 | ~2630 | ~2710 | 1490
8 | COc1cc(N2CCC(N3CCN(C)CC3)CC2)ccc1Nc1nc(Nc2ccccc2SC)c2c(ccn2C)n1 [IIA-2] | 1400 | 1620 | ~883 | ~1110 |  |  |  | 
9 | COc1cc(N2CCC(N3CCN(C)CC3)CC2)ccc1Nc1nc(Nc2ccccc2SC(C)C)c2c(ccn2C)n1 [IIB-2] | ~940 | ~853 | 606 | ~949 |  |  |  | 
10 | CC(C)S(=O)(=O)c1ccccc1Nc1nc(Nc2ccc(S(N)(=O)=O)cc2)nc2cc[nH]c12 [ID-5] |  |  |  |  | > 10000 | > 10000 | > 10000 | > 10000
11 | COC(=O)c1ccccc1Nc1nc(Nc2ccc(N3CCN(C)CC3)cn2)nc2cc[nH]c12 [IG-13] |  |  |  |  | > 10000 | > 10000 | > 10000 | > 10000
12 | CS(=O)(=O)c1ccccc1CNc1nc(Nc2ccc(N3CCC(O)CC3)cc2)nc2cc[nH]c12 [IN-3] |  |  |  |  | > 10000 | > 10000 | > 10000 | > 10000
13 | COC(=O)c1ccccc1Nc1nc(Nc2ccc(C(=O)N3CCC(N4CCN(C)CC4)CC3)cc2OC)nc2ccn(C)c12 [IIG-4] | 4210 | 3950 | 4870 | ~1330 |  |  |  | 
14 | COc1cc(N2CCN(C)CC2)ccc1Nc1nc(Nc2ccccc2SC(C)C)c2[nH]ccc2n1 [IB-1] |  |  |  |  | 1450 | ~2410 | ~2800 | ~895
15 | COC(=O)c1ccccc1Nc1nc(Nc2ccc(C(=O)N3CCC(N4CCN(C)CC4)CC3)cc2OC)nc2cc[nH]c12 [IG-12] |  |  |  |  | 4080 | 4130 | ~7740 | 6500
16 | COc1cc(N2CCN(C)CC2)ccc1Nc1nc(NCc2ccccc2SC(C)C)c2c(ccn2C)n1 [IIJ-1] | 627 | 544 | ~911 | ~865 |  |  |  | 
17 | CCOc1cc(N2CCC(O)CC2)ccc1Nc1nc(Nc2ccccc2C(=O)OC)c2[nH]ccc2n1 [IG-10] |  |  |  |  | 19600 | > 10000 | > 10000 | 9800
18 | COc1cc(N2CCN(C)CC2)ccc1Nc1nc(NC2CC2)c2[nH]ccc2n1 [IS-1] |  |  |  |  | 1790 | 1700 | 5330 | ~2550

Row | Compound | IC50 (NPM-ALK-BaF3; Table 12) [nM] | IC50 (EML4-ALK (L1196M)-BaF3; [1]) [nM] | IC50 (wild type BaF3; Table 12) [nM] | IC50 (EML4-ALK-BaF3; Table 12) [nM] | IC50 (NPM-ALK-BaF3; Table 11) [nM] | IC50 (EML4-ALK (L1196M)-BaF3; [2]) [nM] | IC50 (wild type BaF3; Table 11) [nM] | IC50 (EML4-ALK-BaF3; Table 11) [nM]
19 | CNC(=O)c1ccccc1Nc1nc(Nc2ccc(S(N)(=O)=O)cc2)nc2cc[nH]c12 [IJ-3] |  |  |  |  | > 10000 | > 10000 | > 10000 | > 10000
20 | COc1cc(N2CCN(C)CC2)ccc1Nc1nc(NCc2ccccc2SC)c2[nH]ccc2n1 [IL-1] |  |  |  |  | ~929 | 1620 | ~2820 | 1320
21 | CSc1ccccc1CNc1nc(Nc2ccc(N3CCC(O)CC3)cc2)nc2ccn(C)c12 [III-2] | > 10000 | > 10000 | > 10000 | > 10000 |  |  |  | 
22 | COc1cc(N2CCN(C)CC2)ccc1Nc1nc(NCc2ccccc2S(C)(=O)=O)c2[nH]ccc2n1 [IN-1] |  |  |  |  | > 10000 | > 10000 | > 10000 | > 10000
23 | COC(=O)c1ccccc1Nc1nc(Nc2ccc(N3CCC(O)CC3)cc2)nc2ccn(C)c12 [IIG-3] | 3180 | 2790 | 5040 | 4260 |  |  |  | 
24 | CC(C)S(=O)(=O)c1ccccc1CNc1nc(Nc2ccc(S(N)(=O)=O)cc2)nc2cc[nH]c12 [IO-4] |  |  |  |  | > 10000 | > 10000 | > 10000 | > 10000
25 | CC(C)Sc1ccccc1Nc1nc(Nc2ccc(N3CCC(O)CC3)cc2)nc2cc[nH]c12 [IB-2] |  |  |  |  | 1770 | 1740 | 1920 | 786
26 | CC(C)S(=O)(=O)c1ccccc1Nc1nc(Nc2ccc(N3CCC(O)CC3)cc2)nc2cc[nH]c12 [ID-4] |  |  |  |  | ~8930 | 6150 | > 10000 | 2860
27 | COC(=O)c1ccccc1Nc1nc(Nc2ccc(N3CCN(C)CC3)cc2)nc2cc[nH]c12 [IG-6] |  |  |  |  | 1740 | 1520 | ~3140 | 1370
28 | COc1cc(N2CCN(C)CC2)ccc1Nc1nc(Nc2ccccc2S(=O)(=O)C(C)C)c2[nH]ccc2n1 [ID-1] |  |  |  |  | 796 | 737 | ~8390 | 477
29 | COC(=O)c1ccccc1Oc1nc(Nc2ccc(N3CCN(C)CC3)cc2OC)nc2cc[nH]c12 [IV-1] |  |  |  |  | > 10000 | 7310 | > 10000 | 6900
30 | CCC(C)OC(=O)c1ccccc1Nc1nc(Nc2ccc(N3CCN(C)CC3)cc2OC)nc2cc[nH]c12 (stereo not drawn) [IH-1] |  |  |  |  | 1560 | 916 | 2070 | 1120
31 | CC(C)Sc1ccccc1CNc1nc(Nc2ccc(N3CCC(O)CC3)cc2)nc2cc[nH]c12 [IM-2] |  |  |  |  | 1620 | 1310 | 2900 | 1240
32 | CSc1ccccc1Nc1nc(Nc2ccc(S(N)(=O)=O)cc2)nc2cc[nH]c12 [IA-3] |  |  |  |  | 12900 | 6630 | 7710 | 2420
33 | CNC(=O)c1ccccc1Nc1nc(Nc2ccc(N3CCC(N4CCN(C)CC4)CC3)cc2OC)nc2cc[nH]c12 [IJ-1] |  |  |  |  | 4660 | 3940 | 5010 | 4270
34 | Cn1ccc2nc(Nc3ccc(S(N)(=O)=O)cc3)nc(NCc3ccccc3S(C)(=O)=O)c21 [IIK-4] |  | > 10000 | > 10000 | > 10000 |  |  |  | 
35 | CN1CCN(c2ccc(Nc3nc(NCc4ccccc4S(C)(=O)=O)c4[nH]ccc4n3)cc2)CC1 [IN-5] |  |  |  |  | > 10000 | > 10000 |  | > 10000
